Experimental data published in ChEMBL document CHEMBL1201862, “PubChem BioAssay data set” (2004).
Where a name gives a salt, the structure may show the parent alone.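 1) Cells in 96-well plates. 2) Compound, 48 h, 5 concentrations. 3) Linear interpolation between surrounding doses. 4) Unreached endpoint = highest concentration. Abbreviation: GI50, concentration required for 50% inhibition of growth.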 Active and inactive are the calls of the source. No stated cut-off is given here; in the data, active = GI50 up to about 1.1 µM and inactive = higher.

Columns and labels:
Experiment in all cases: NCI tumour cell line growth inhibition, 48 h
786-0 = tested on: 786-0
A498 = tested on: A498
A549 = tested on: A549
ACHN = tested on: ACHN
CCRF-CEM = tested on: CCRF-CEM
COLO 205 = tested on: COLO 205
DLD-1 = tested on: DLD-1
EKVX = tested on: EKVX
HCC 2998 = tested on: HCC 2998
HCT-116 = tested on: HCT-116
HCT-15 = tested on: HCT-15
HL-60 = tested on: HL-60
HOP-18 = tested on: HOP-18
HOP-62 = tested on: HOP-62
HT-29 = tested on: HT-29
IGROV-1 = tested on: IGROV-1
K562 = tested on: K562
KM-20L2 = tested on: KM-20L2
KM12 = tested on: KM12
LOX IMVI = tested on: LOX IMVI
LXFL 529 = tested on: LXFL 529
M14 = tested on: M14
M19-MEL = tested on: M19-MEL
MOLT-4 = tested on: MOLT-4
Malme-3M = tested on: Malme-3M
NCI-H226 = tested on: NCI-H226
NCI-H23 = tested on: NCI-H23
NCI-H460 = tested on: NCI-H460
NCI-H522 = tested on: NCI-H522
OVCAR-3 = tested on: OVCAR-3
OVCAR-5 = tested on: OVCAR-5
OVCAR-8 = tested on: OVCAR-8
RPMI-8226 = tested on: RPMI-8226
RXF 393 = tested on: RXF 393
SF-295 = tested on: SF-295
SF-539 = tested on: SF-539
SK-MEL-28 = tested on: SK-MEL-28
SK-MEL-5 = tested on: SK-MEL-5
SK-OV-3 = tested on: SK-OV-3
SN12C = tested on: SN12C
SNB-19 = tested on: SNB-19
SNB-75 = tested on: SNB-75
SR = tested on: SR
SW-620 = tested on: SW-620
TK-10 = tested on: TK-10
U-251 = tested on: U-251
UACC-257 = tested on: UACC-257
UACC-62 = tested on: UACC-62
UO-31 = tested on: UO-31
XF498 = tested on: XF498
CAKI-1 = tested on: CAKI-1
DMS-273 = tested on: DMS-273
HOP-92 = tested on: HOP-92
MCF7 = tested on: MCF7
NCI/ADR-RES = tested on: NCI/ADR-RES
OVCAR-4 = tested on: OVCAR-4
SF-268 = tested on: SF-268
SK-MEL-2 = tested on: SK-MEL-2
SNB-78 = tested on: SNB-78
DMS-114 = tested on: DMS-114

In the case of `O=C1c2c(c3c4ccccc4n4c3c3c2c2ccccc2n3C/C=C\C4)C(=O)N1Cc1ccccc1`, the GI50 (786-0) is reported as > 100 µM (inactive), the GI50 (A498) is reported as > 100 µM (inactive) and the GI50 (A549) is reported as > 100 µM (inactive). For the same compound, the GI50 (ACHN) was > 100 µM (inactive), the GI50 (CCRF-CEM) was > 100 µM (inactive) and the GI50 (COLO 205) was > 100 µM (inactive). For the same compound, the GI50 (DLD-1) was > 100 µM (inactive), the GI50 (EKVX) was > 100 µM (inactive) and the GI50 (HCC 2998) was > 100 µM (inactive). For the same compound, the GI50 (HCT-116) was > 100 µM (inactive), the GI50 (HCT-15) was greater than 100 µM and the GI50 (HL-60) was > 100 µM (inactive). For the same compound, the GI50 (HOP-18) was > 100 µM (inactive), the GI50 (HOP-62) was > 100 µM (inactive) and the GI50 (HT-29) was > 100 µM (inactive). The GI50 (IGROV-1) was > 100 µM (inactive), the GI50 (K562) was > 100 µM (inactive) and the GI50 (KM-20L2) was > 100 µM (inactive). The GI50 (KM12) was > 100 µM (inactive), the GI50 (LOX IMVI) was > 100 µM (inactive) and the GI50 (LXFL 529) was > 100 µM (inactive). For the same compound, the GI50 (M14) was > 100 µM (inactive), the GI50 (M19-MEL) was > 100 µM (inactive) and the GI50 (MOLT-4) was > 100 µM (inactive). The GI50 (Malme-3M) was > 100 µM (inactive), the GI50 (NCI-H226) was > 100 µM (inactive) and the GI50 (NCI-H23) was > 100 µM (inactive). The GI50 (NCI-H460) was > 100 µM (inactive), the GI50 (NCI-H522) was > 100 µM (inactive) and the GI50 (OVCAR-3) was > 100 µM (inactive). For the same compound, the GI50 (OVCAR-5) was > 100 µM (inactive), the GI50 (OVCAR-8) was > 100 µM (inactive) and the GI50 (RPMI-8226) was > 100 µM (inactive). The GI50 (RXF 393) was > 100 µM (inactive), the GI50 (SF-295) was > 100 µM (inactive) and the GI50 (SF-539) was > 100 µM (inactive). The GI50 (SK-MEL-28) was > 100 µM (inactive), the GI50 (SK-MEL-5) was > 100 µM (inactive) and the GI50 (SK-OV-3) was > 100 µM (inactive). The GI50 (SN12C) was > 100 µM (inactive), the GI50 (SNB-19) was > 100 µM (inactive) and the GI50 (SNB-75) was 30.2 µM (inactive). For the same compound, the GI50 (SR) was > 100 µM (inactive), the GI50 (SW-620) was > 100 µM (inactive) and the GI50 (TK-10) was > 100 µM (inactive). For the same compound, the GI50 (U-251) was 46.5 µM (inactive), the GI50 (UACC-257) was > 100 µM (inactive) and the GI50 (UACC-62) was > 100 µM (inactive). The GI50 (UO-31) was > 100 µM (inactive) and the GI50 (XF498) was 31.3 µM (inactive).

For `CCCCc1oc2ccccc2c1C(=O)c1cc(I)c(OCCN(CC)CC)c(I)c1` [AMIODARONE HYDROCHLORIDE], the GI50 (A498) was 5.02 µM (inactive), the GI50 (A549) was 8.51 µM (inactive) and the GI50 (CAKI-1) was 6.14 µM (inactive). The GI50 (CCRF-CEM) was 4.54 µM (inactive), the GI50 (COLO 205) was 4.21 µM (inactive) and the GI50 (DLD-1) was 6.73 µM (inactive). For the same compound, the GI50 (DMS-273) was 4.16 µM (inactive), the GI50 (EKVX) was 9.79 µM (inactive) and the GI50 (HCC 2998) was 3.85 µM (inactive). For the same compound, the GI50 (HCT-116) was 4.17 µM (inactive), the GI50 (HCT-15) was 4.12 µM and the GI50 (HL-60) was 2.79 µM (inactive). The GI50 (HOP-18) was 0.791 µM (active), the GI50 (HOP-62) was 10.6 µM (inactive) and the GI50 (HOP-92) was 3.86 µM (inactive). The GI50 (HT-29) was 4.42 µM (inactive), the GI50 (IGROV-1) was 11.1 µM (inactive) and the GI50 (K562) was 3.88 µM (inactive). For the same compound, the GI50 (KM-20L2) was 3.64 µM (inactive), the GI50 (KM12) was 5.51 µM (inactive) and the GI50 (LOX IMVI) was 3.82 µM (inactive). The GI50 (M19-MEL) was 4.67 µM (inactive), the GI50 (MCF7) was 5.19 µM (inactive) and the GI50 (MOLT-4) was 3.4 µM (inactive). The GI50 (Malme-3M) was 4.89 µM (inactive), the GI50 (NCI-H226) was 4.5 µM (inactive) and the GI50 (NCI-H23) was 6.15 µM (inactive). For the same compound, the GI50 (NCI-H460) was 4.09 µM (inactive), the GI50 (NCI-H522) was 5.06 µM (inactive) and the GI50 (NCI/ADR-RES) was 5.86 µM (inactive). The GI50 (OVCAR-3) was 6.22 µM (inactive), the GI50 (OVCAR-4) was 6.5 µM (inactive) and the GI50 (OVCAR-5) was 5.21 µM (inactive). The GI50 (RPMI-8226) was 3.71 µM (inactive), the GI50 (RXF 393) was 3.82 µM (inactive) and the GI50 (SF-268) was 11 µM (inactive). The GI50 (SF-295) was 4.63 µM (inactive), the GI50 (SF-539) was 5.07 µM (inactive) and the GI50 (SK-MEL-28) was 4.8 µM (inactive). The GI50 (SK-MEL-2) was 4.63 µM (inactive), the GI50 (SK-MEL-5) was 4.7 µM (inactive) and the GI50 (SK-OV-3) was 5.98 µM (inactive). The GI50 (SN12C) was 7.73 µM (inactive), the GI50 (SNB-19) was 6.21 µM (inactive) and the GI50 (SNB-75) was 7.59 µM (inactive). The GI50 (SNB-78) was 7.6 µM (inactive), the GI50 (SW-620) was 4.59 µM (inactive) and the GI50 (U-251) was 4.16 µM (inactive). For the same compound, the GI50 (UACC-257) was 5.21 µM (inactive), the GI50 (UACC-62) was 5.28 µM (inactive) and the GI50 (XF498) was 4.69 µM (inactive).

In the case of `CN(C)CCNc1nc(-c2cccs2)cc(-c2cccs2)n1`, the GI50 (786-0) is reported as 15.2 µM (inactive), the GI50 (A498) is reported as 11.9 µM (inactive) and the GI50 (A549) is reported as 15.6 µM (inactive). The GI50 (CAKI-1) was > 10 µM (inactive), the GI50 (CCRF-CEM) was 4.41 µM (inactive) and the GI50 (COLO 205) was 12.1 µM (inactive). The GI50 (DLD-1) was 22.5 µM (inactive), the GI50 (DMS-114) was 8.73 µM (inactive) and the GI50 (DMS-273) was 10.8 µM (inactive). The GI50 (HCC 2998) was 12.4 µM (inactive), the GI50 (HCT-116) was 11.3 µM (inactive) and the GI50 (HCT-15) was 15.9 µM. The GI50 (HOP-18) was < 0.01 µM (active), the GI50 (HOP-62) was 18.7 µM (inactive) and the GI50 (HOP-92) was 1.58 µM (inactive). For the same compound, the GI50 (HT-29) was 7.5 µM (inactive), the GI50 (IGROV-1) was 24.4 µM (inactive) and the GI50 (K562) was 17.7 µM (inactive). The GI50 (KM12) was 12.1 µM (inactive), the GI50 (LOX IMVI) was 10.5 µM (inactive) and the GI50 (LXFL 529) was 14.8 µM (inactive). For the same compound, the GI50 (M14) was 12.4 µM (inactive), the GI50 (MOLT-4) was 3 µM (inactive) and the GI50 (Malme-3M) was 15.5 µM (inactive). The GI50 (NCI-H226) was 15.9 µM (inactive), the GI50 (NCI-H23) was 10.5 µM (inactive) and the GI50 (NCI-H460) was 3.85 µM (inactive). For the same compound, the GI50 (NCI-H522) was > 10 µM (inactive), the GI50 (OVCAR-3) was 22.6 µM (inactive) and the GI50 (OVCAR-4) was > 10 µM (inactive). For the same compound, the GI50 (OVCAR-5) was 9.18 µM (inactive), the GI50 (OVCAR-8) was 9.84 µM (inactive) and the GI50 (RXF 393) was 14.6 µM (inactive). The GI50 (SF-295) was 14.3 µM (inactive), the GI50 (SF-539) was 15.1 µM (inactive) and the GI50 (SK-MEL-28) was 15.9 µM (inactive). The GI50 (SK-MEL-2) was 16.8 µM (inactive), the GI50 (SK-MEL-5) was 15.3 µM (inactive) and the GI50 (SK-OV-3) was > 10 µM (inactive). The GI50 (SN12C) was 12.9 µM (inactive), the GI50 (SNB-75) was 23.8 µM (inactive) and the GI50 (SNB-78) was 16.9 µM (inactive). For the same compound, the GI50 (SR) was 2.84 µM (inactive), the GI50 (SW-620) was 13.9 µM (inactive) and the GI50 (TK-10) was 14.9 µM (inactive). For the same compound, the GI50 (U-251) was 10.7 µM (inactive), the GI50 (UACC-257) was 11.6 µM (inactive) and the GI50 (UACC-62) was 19.1 µM (inactive). The GI50 (UO-31) was 11.2 µM (inactive) and the GI50 (XF498) was 3.39 µM (inactive).
